Measured values published in patent US6852759B2, “Process for the synthesis of trans-alkenoic acids, use thereof” (priority 2002, dated 2005).

Assays:
Type in all cases: in vivo
[1] = system: CCl4 induced hepatic injury in rats; assay: Hepatoprotective activity, curative study, CCl4
[2] = system: D-Galactosamine (Gal N) induced hepatic injury in rats; assay: Hepatoprotective activity, curative study, D-Galactosamine
[3] = system: D-Galactosamine (Gal N) induced hepatic injury in rats; assay: Hepatoprotective activity, prophylactic study, D-Galactosamine
[4] = 100 mg/kg p.o. + CCl4, curative
[5] = TCA alone 100 mg/kg p.o., no CCl4, curative study
[6] = 12.5 mg/kg p.o. + Gal N, curative
[7] = 25 mg/kg p.o. + Gal N, curative
[8] = 50 mg/kg p.o. + Gal N, curative
[9] = TCA alone 50 mg/kg p.o., no Gal N, curative study
[10] = 12.5 mg/kg p.o. + Gal N, prophylactic
[11] = 25 mg/kg p.o. + Gal N, prophylactic
[12] = 50 mg/kg p.o. + Gal N, prophylactic
[13] = TCA alone 100 mg/kg p.o., no Gal N, prophylactic study

## CCCCCCCC/C=C/CCCCCCCCCCCCCC(=O)O [TCA, t-Tetracos-15-enoic acid]
[1]; [4]
  Serum GPT: 457.55 ± 18.18 Units
  Serum GPT, hepatoprotective activity percent: (73.41 ± 1.26) percent
  Serum Triglycerides: 10.37 ± 0.65 mg %
  Serum Triglycerides, hepatoprotective activity percent: (61.02 ± 11.24) percent
[1]; [5]
  Serum ALP: 25.84 ± 2.32 μmole of p-nitrophenol formed/min/L
  Serum Bilirubin: 0.16 ± 0.02 mg %
  Serum GOT: 82.13 ± 10.59 Units
  Serum GPT: 92.18 ± 15.75 Units
  Serum Triglycerides: 6.98 ± 0.86 mg %
[2]; [6]
  Serum ALP: 46.03 ± 2.35^NS μmole of p-niotrophenol formed/min/L
  Serum ALP, hepatoprotective activity percent: (43.65 ± 6.96) percent
  Serum Bilirubin: 0.56 ± 0.03 mg %
  Serum Bilirubin, hepatoprotective activity percent: (46.75 ± 3.74) percent
  Serum GOT: 494.53 ± 41.13 Units
  Serum GOT, hepatoprotective activity percent: (34.12 ± 6.65) percent
  Serum GPT: 578.14 ± 57.37 Units
  Serum GPT, hepatoprotective activity percent: (40.40 ± 7.08) percent
  Serum Triglycerides: 11.85 ± 0.75^NS mg %
  Serum Triglycerides, hepatoprotective activity percent: (32.78 ± 8.37) percent
[2]; [7]
  Serum ALP: 38.87 ± 2.62 μmole of p-niotrophenol formed/min/L
  Serum ALP, hepatoprotective activity percent: (64.83 ± 7.74) percent
  Serum Bilirubin: 0.46 ± 0.03 mg %
  Serum Bilirubin, hepatoprotective activity percent: (59.74 ± 4.04) percent
  Serum GOT: 449.93 ± 31.58 Units
  Serum GOT, hepatoprotective activity percent: (41.37 ± 5.10) percent
  Serum GPT: 518.66 ± 42.64 Units
  Serum GPT, hepatoprotective activity percent: (47.74 ± 5.26) percent
  Serum Triglycerides: 10.48 ± 0.91^NS mg %
  Serum Triglycerides, hepatoprotective activity percent: (46.11 ± 9.77) percent
[2]; [8]
  Serum ALP: 36.94 ± 1.87 μmole of p-niotrophenol formed/min/L
  Serum ALP, hepatoprotective activity percent: (71.88 ± 5.54) percent
  Serum Bilirubin: 0.35 ± 0.02 mg %
  Serum Bilirubin, hepatoprotective activity percent: (73.16 ± 2.95) percent
  Serum GOT: 391.66 ± 29.53 Units
  Serum GOT, hepatoprotective activity percent: (50.76 ± 4.78) percent
  Serum GPT: 412.17 ± 31.17 Units
  Serum GPT, hepatoprotective activity percent: (60.88 ± 3.85) percent
  Serum Triglycerides: 9.23 ± 0.59 mg %
  Serum Triglycerides, hepatoprotective activity percent: (61.84 ± 6.59) percent
[2]; [9]
  Serum ALP: 24.45 ± 2.76 μmole of p-niotrophenol formed/min/L
  Serum Bilirubin: 0.19 ± 0.02 mg %
  Serum GOT: 91.07 ± 10.50 Units
  Serum GPT: 105.02 ± 18.74 Units
  Serum Triglycerides: 6.44 ± 0.38 mg %
[3]; [10]
  Serum ALP: 47.07 ± 2.98 μmole of p-nitrophenol formed/min/L
  Serum ALP, hepatoprotective activity percent: (30.88 ± 7.77) percent
  Serum Bilirubin: 0.56 ± 0.03 mg %
  Serum Bilirubin, hepatoprotective activity percent: (39.49 ± 4.59) percent
  Serum GOT: 613.20 ± 65.19 Units
  Serum GOT, hepatoprotective activity percent: (34.60 ± 7.57) percent
  Serum GPT: 743.62 ± 66.83 Units
  Serum GPT, hepatoprotective activity percent: (39.30 ± 6.25) percent
  Serum Triglycerides: 26.49 ± 1.88 mg %
  Serum Triglycerides, hepatoprotective activity percent: (37.38 ± 6.18) percent
[3]; [11]
  Serum ALP: 40.49 ± 2.29 μmole of p-nitrophenol formed/min/L
  Serum ALP, hepatoprotective activity percent: (51.62 ± 6.31) percent
  Serum Bilirubin: 0.44 ± 0.05 mg %
  Serum Bilirubin, hepatoprotective activity percent: (58.00 ± 3.86) percent
  Serum GOT: 505.26 ± 29.63 Units
  Serum GOT, hepatoprotective activity percent: (47.68 ± 3.99) percent
  Serum GPT: 635.11 ± 54.67 Units
  Serum GPT, hepatoprotective activity percent: (49.35 ± 5.16) percent
  Serum Triglycerides: 23.58 ± 2.02 mg %
  Serum Triglycerides, hepatoprotective activity percent: (46.97 ± 6.67) percent
[3]; [12]
  Serum ALP: 34.94 ± 1.43 μmole of p-nitrophenol formed/min/L
  Serum ALP, hepatoprotective activity percent: (66.91 ± 3.92) percent
  Serum Bilirubin: 0.36 ± 0.02 mg %
  Serum Bilirubin, hepatoprotective activity percent: (70.76 ± 2.78) percent
  Serum GOT: 406.05 ± 25.82 Units
  Serum GOT, hepatoprotective activity percent: (61.05 ± 3.48) percent
  Serum GPT: 413.53 ± 23.94 Units
  Serum GPT, hepatoprotective activity percent: (70.34 ± 2.25) percent
  Serum Triglycerides: 21.37 ± 1.51 mg %
  Serum Triglycerides, hepatoprotective activity percent: (54.25 ± 4.97) percent
[3]; [13]
  Serum ALP: 19.84 ± 1.58 μmole of p-nitrophenol formed/min/L
  Serum Bilirubin: 0.20 ± 0.02 mg %
  Serum GOT: 122.47 ± 11.84 Units
  Serum GPT: 95.22 ± 8.74 Units
  Serum Triglycerides: 8.79 ± 0.55 mg %
